The conditions of data set [1]: stated in discussion, no source given; cited from earlier work.
The nature of data set [2]: physchem. The data set is classed as physicochemical. The following applies: human; for solubility: thermodynamic from solid. On the procedure:
The equilibrium solubility of vardenafil in gastric content was also tested using the shake-flask method mentioned above, which followed a procedure that had been recently described. In short, excess drug was added to glass vials containing samples of gastric content aspirated from three patients (1 SG, 1 RYGB, and 1 OAGB) during bariatric procedure time. Aspiration was performed through the nasogastric tube at three time points: before, immediately after , and 24 h post-surgery. Study protocol approval was given by the Ben-Gurion University School of Medicine institutional review board (institutional board request number 0248-18-SOR), and informed consent was obtained from all the participants prior to surgery. Following gastric content collection, pH was immediately measured and recorded. […] As vardenafil hydrochloride powder modified the pH of the post-bariatric gastric fluid, pH was adjusted with a small volume pH 7 buffer, as necessary.

Data set [3] is described as follows: physchem. The data set is classed as physicochemical. The protocol:
The equilibrium solubility of vardenafil was determined by the previously described shake-flask method. Four different medium pHs were used: pH 1 and pH 3 (0.2 M maleic acid), pH 5 (0.2 M acetic acid), and pH 7 (0.2 M dihydrogen phosphate). Quadruplet (n = 4) samples of each buffer pH were prepared with drug powder added in excess, until saturation, to vials with 500 µL medium solution. Vial incubation was at 37 °C, with 200 rpm sample shaking for 24 h (Orbital Shaker Incubator, MRC Laboratory Instruments, Holon, Israel). Sample contents were then transferred to Eppendorf tubes for a 10 min centrifugation (Centrifuge 5430 R, Eppendorf®, Hamburg, Germany) at 20,817 rcf and 37 °C. Obtained supernatants were diluted as needed and immediately analyzed by UPLC-PDA (Table 1).

The nature of data set [4]: In vitro dissolution of whole tablets under pre- vs post-bariatric gastric conditions. It counts as physicochemical. The settings on record: Levitra 20 mg tablet. On the procedure: The dissolution of whole tablet vardenafil (20 mg) products was studied in three different conditions, as previously described (n = 4 for each condition): (1) pH 1 maleic acid, 250 mL medium (pre-surgery conditions), with the USP dissolution apparatus II (Premiere 5100, Distek®, North Brunswick, NJ, USA), at 100 rpm paddle rotation; […] This rotation velocity was calculated, addressing the following parameters: the paddle size (D), volume of fluid (V), and agitation strength (ε), as follows: εlong/εshort=RPMlong3 × Dlong5/Vlong/RPMshort3 × Dshort5/Vshort These adjusted experimental conditions mimic pre- vs. post-bariatric intragastric dissolution conditions, including the pH, temperature, fluid volume, and contractility force, and were thus preferred over standard, compendial dissolution methods. Next, 300 µL samples were drawn for 90 min at 10 different time points and then filtered prior to ultra-performance liquid chromatography (UPLC) analysis (Table 1).

On the set-up of data set [5]: method as in earlier work. The following applies: healthy fasted humans, digitized mean profile, cited from earlier work.
The nature of the next data set: clinical. The protocol: Values were either obtained from the literature, in silico predictions (ADMET Predictor® module, version 10.4.0.0; Simulations Plus Inc., Lancaster, CA, USA) based on the drug’s molecular structure, or experimentally determined. pH-dependent solubility data were input as an .spd file and used to fit the solubility factors in the solubility model. Drug dissolution along the GIT was calculated using the software default Johnson equation [58] based on the drug’s solubility and particle size. With the lack of data on commercial product drug particle size, 100 µm was chosen as an approximate value for all simulations. Regarding poor aqueous solubility, bile salts’ effect on drug solubility/dissolution was also accounted for. The drug precipitation time was set as the default 900 s. […] The distribution and elimination PK parameters of vardenafil were based on available data of in vivo plasma concentration over time following IV and PO drug administration, using the software-integrated PKPlus^TM module and optimized further while keeping the final values within the reported literature range (Table 3).

[6] abbreviates: estimated with PKPlus from in vivo IV and oral data, then optimized.

Values after ≈ are worked out from the molar mass of the structure shown. Read-outs that look alike come from different tables or passages of the source. A value given as a limit tells only on which side of the number the result lay.

For `CCCc1nn(C)c2c(=O)[nH]c(-c3cc(S(=O)(=O)N4CCN(C)CC4)ccc3OCC)nc12` [sildenafil], in data set [1], the pKa is listed as ~ 7.

For the molecule `CCCc1nc(C)c2c(=O)[nH]c(-c3cc(S(=O)(=O)N4CCN(CC)CC4)ccc3OCC)nn12` [vardenafil], the “Lower ex vivo solubility after vs. before the surgery” value in “physchem [2]” is recorded as greater than 500 fold. Besides, the solubility in the data set “physchem [2]” (pH 2, plasma or biological fluid) was greater than 30 mg/mL; in the data set “physchem [2]” (pH 7, plasma or biological fluid) it was 0.06 mg/mL (≈ 0.123 mM). In addition, the solubility at 24 h in “physchem [3]” (37 °C, pH 3, aqueous buffer, thermodynamic from solid) is greater than 30 mg/mL; in “physchem [3]” (37 °C, pH 5, aqueous buffer, thermodynamic from solid) it was 27.4 mg/mL (≈ 56.1 mM); in “physchem [3]” (37 °C, pH 7, aqueous buffer, thermodynamic from solid), 0.05 mg/mL (≈ 0.102 mM); in the data set “physchem [3]” (pH 1) it was greater than 30 mg/mL. For the same molecule, in “physchem [3]” (24 h), the “Decrease in saturation solubility” value is “over 600 fold”. For the same molecule, the “Solubility at 37 °C” value in the data set “physchem [3]” (24 h, pH 1) is listed as 30 mg/mL (≈ 61.4 mM); in “physchem [3]” (24 h, pH 3) it was 30 mg/mL (≈ 61.4 mM). The “Dissolution (dose dissolved)” value in data set [4] (post-OAGB conditions, pH 7, 50 mL) turned out to be 4%; in data set [4] (post-SG conditions, pH 5, 50 mL) it was 100%; in data set [4] (pre-surgery conditions, pH 1, 250 mL), 100%. The entries for the “AUC0−inf, observed” value in data set [5] (10 mg single oral dose) and in data set [5] (20 mg single oral dose) were 27.29 ng·h/mL and 41.86 ng·h/mL, respectively. Also, the “Cmax, observed” value in data set [5] (10 mg single oral dose) is listed as 7.20 ng/mL; in data set [5] (20 mg single oral dose), 16.30 ng/mL. In addition, the “Tmax, observed” value is 57 min in data set [5] (10 mg single oral dose) and 46.8 min in data set [5] (20 mg single oral dose). Moreover, the “Distribution constant k12” value in the data set “clinical” (setting [6]) is 3.090 h⁻¹. In addition, the “Distribution constant k13” value in “clinical” (setting [6]) was 0.448 h⁻¹. Besides, the “Distribution constant k21” value in the data set “clinical” (setting [6]) was 2.100 h⁻¹. Further, in “clinical” (setting [6]), the “Distribution constant k31” value is 0.250 h⁻¹. In the data set “clinical” (human), this molecule came in with a Vd of 0.8 L/kg. The molecule further showed a clearance in “clinical” (human) of 15.4 mL/min/kg. The pKa in data set [1] is ~ 7.

The record behind these values is PMC12292445, “Physiologically Based Pharmacokinetic Modeling for Predicting Drug Levels After Bariatric Surgery: Vardenafil Exposure Before vs. After Gastric Sleeve/Bypass” (Biomolecules, 2025).
